Experimental data from patent publication US7148240B2, “Aminoalkoxybenzoyl-benzofuran or benzothiophene derivatives, method for preparing same and compositions containing same” (Sanofi-Aventis, priority 2000, dated 2006).

Row | melting point | SMILES
1 | 181 to 183 °C | CCCCc1oc2cc(C)c(C(=O)OC)cc2c1C(=O)c1ccc(OCCCN2CCCCC2)cc1.Cl
2 | 160 °C | CCCCc1oc2cccc(C(=O)OC)c2c1C(=O)c1ccc(OCCCN2CCCCC2)cc1.O=C(O)C(=O)O [Example 31, Methyl 2-butyl-3-[4-(3-(1-piperidinyl)propoxy]benzoyl]-1-benzofuran-4-carboxylate oxalate]
